The term inhibition denotes the relative decrease from the control value, in per cent.

1 compound from patent publication US8642028B2, “Recombinant adenoviruses encoding the specific iodine transporter (NIS)” (Aventis Pharma S.A., priority 1999, dated 2014) can be followed below.

A value given as a limit tells only on which side of the number the result lay.

Assay [1] deals with T1, NIS (Rattus norvegicus, UniProt Q63008).
T1 construct: expressed in transfected cells; host or cells: SiHa human epithelial tumor cells (ATCC HTB-35) infected with Ad-NIS at a multiplicity of infection of 10
T1 sequence (Q63008 1-618): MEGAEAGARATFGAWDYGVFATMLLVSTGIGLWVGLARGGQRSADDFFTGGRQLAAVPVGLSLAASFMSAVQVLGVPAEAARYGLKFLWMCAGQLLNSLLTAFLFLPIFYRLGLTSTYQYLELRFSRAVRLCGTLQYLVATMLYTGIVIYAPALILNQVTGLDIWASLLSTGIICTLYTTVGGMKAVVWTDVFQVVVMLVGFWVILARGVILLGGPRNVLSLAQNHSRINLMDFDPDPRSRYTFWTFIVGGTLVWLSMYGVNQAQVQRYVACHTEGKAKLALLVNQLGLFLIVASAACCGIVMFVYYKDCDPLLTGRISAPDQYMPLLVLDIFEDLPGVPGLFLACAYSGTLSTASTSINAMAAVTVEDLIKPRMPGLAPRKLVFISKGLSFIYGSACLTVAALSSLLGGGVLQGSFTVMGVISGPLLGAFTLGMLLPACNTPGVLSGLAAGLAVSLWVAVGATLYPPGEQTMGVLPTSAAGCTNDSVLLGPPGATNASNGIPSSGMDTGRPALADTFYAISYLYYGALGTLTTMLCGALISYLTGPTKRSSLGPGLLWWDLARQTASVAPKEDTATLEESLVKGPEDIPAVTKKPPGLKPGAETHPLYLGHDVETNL
Put plainly: Inhibition by perchlorate of iodine transport by NIS in FRTL-5 cells. It is filed as cell-based. The procedure: (§1) The cells are infected with the Ad-NIS vector at a multiplicity of infection of 10. The capacity of the cells to capture iodine is tested 28 to 29 h after infection according to the Weiss et al. method [Endocrinology (1984) 114: 1090-1098]. The infected cells are washed with HBSS buffer and placed in contact for the time indicated in FIG. 3 with 0.5 ml of HBSS buffer containing 0.1 μCi of iodine-125. At the end of the contact time, the cells are washed once with cold HBSS buffer and then incubated for 20 min with cold ethanol. The quantity of iodine-125 captured by the cells is determined by assaying the radioactivity of the ethanol, with a gamma counter.
(§2) The specific inhibition of iodine transport by NIS was tested in the presence of perchlorate. NaCIO4 was added to the HBSS buffer containing iodine-125 so as to obtain final concentrations of 30, 300 and 3000 μM. The contact time between the cells and the iodine-125 is 15 minutes. The results are expressed as number of counts for the same number of cells.

The target of assay [2] is T1, NIS. As to the kind of experiment: Inhibition by perchlorate of iodine transport by NIS in SiHa cells infected with Ad-NIS. It is filed as cell-based. The procedure: as §1, §2

Take `[O-][Cl+3]([O-])([O-])O` [NaCIO4]: the inhibition at 30 µM was greater than 90% at NIS [1] (FRTL-5, FRTL-5 cells, 30 μM NaCIO4, 15 min contact with iodine-125, read-out: inhibition of the fixing of iodine) and 40% on NIS [2] (SiHa cells infected with Ad-NIS, 30 μM NaCIO4, 15 min contact, read-out: inhibition of the fixing of iodine). In addition, the “inhibition of the fixing of iodine” value against NIS [1] (FRTL-5 cells, high NaCIO4 concentrations, 15 min contact with iodine-125) turned out to be 95%. In addition, the “inhibitor concentration required for the same level of inhibition, SiHa cells relative to FRTL-5 cells” value against NIS [2] (SiHa cells infected with Ad-NIS versus FRTL-5 cells) stood at 10 times. Moreover, the inhibition at 300 µM on NIS [2] (SiHa cells infected with Ad-NIS, 300 μM NaCIO4, 15 min contact, read-out: inhibition of the fixing of iodine) is 92%. Also, on NIS [2] (SiHa cells infected with Ad-NIS, 3 mM NaCIO4, 15 min contact, read-out: inhibition of the fixing of iodine), the inhibition at 3000 µM is 98%.
